Assay results reported in US20260347843A1, “NERVOUS SYSTEM DELIVERY ENHANCER” (priority 2022, published 2026).

Assays:
[1] = Evaluation of motor function in an open-field test; type: in vivo, mouse; settings: coadministered with Mapt-targeting ASO (50 μg); 1 hour after intraventricular administration
Procedure: On the ASO described in Table 2, the preparation of the nucleic acid, an in vivo experiment, and the evaluation of the target gene suppression effect were performed by the same methods as in Example 1. In this Example, however, the dose of the nucleic acid agent per mouse was 9.4 nmol (50 μg).
By the below-described methods, evaluation of central nervous system toxicity and evaluation of motor function were performed on mice after intraventricular administration.
To evaluate the motor function, an open-field test was performed at each point of time after the intraventricular administration. Specifically, a mouse was placed in the center of a cage (50 cm in width×50 cm in […]×40 cm in height), and the track of the mouse was recorded for 5 minutes. On the basis of the data recorded, the total maximum moving speed (m/s) and the moving time(s) were measured using the video tracking software (ANY-maze).

[2] = test system: Sod1 mRNA; assay: Sod1 mRNA expression level in the hippocampus after intraventricular administration of siRNA; type: in vivo, mouse; settings: coadministered with siRNA (7.0 nmol, 100 μg), 7 days
[3] = test system: GFP expression in the central nervous system; assay: GFP expression from AAV9 vector in hippocampus-level coronal images after intraventricular administration; type: in vivo; settings: coadministered with AAV9-CMV-hrGFP, TGN-073 250 μg/mouse, 3 weeks
Procedure: In this Example, a GFP expression AAV9 (AAV9-CMV-hrGFP) as an adeno-associated viral (AAV) vector, alone or in combination with TGN-073 (250 μg/mouse), was administered at a dose of 26× 109 vg/mouse to the left lateral ventricle of a 7-week-old ICR mouse (female). Hereinafter, the mice to which only the AAV vector was intraventricularly administered are referred to as the “AAV single administration group”, and the mice to which the AAV vector and TGN-073 were intraventricularly administered together are referred to as the “AAV/TGN-073 coadministration group”. At 3 weeks after the intraventricular administration, the mouse was subjected to perfusion fixation using 4% paraformaldehyde. The mouse was subjected to cryoprotective treatment using a solution of 10% to 30% sucrose dissolved in PBS, and then, a cut-piece having a thickness of 40 μm was produced using a microtome. Using a fluorescence microscope (VHS-7000, Keyence Corporation), the GFP fluorescence (hippocampus-level coronal image) was captured.

[4] = test system: exon 23/intron 23 of dystrophin pre-mRNA; assay: Exon 23 skipping efficiency in the brain after intraventricular administration; type: in vivo, mouse; settings: TGN-073 250 μg, hippocampus, striatum, cortex (any site), 7 days
Procedure: The mouse used was a 6-week-old male C57BL/6J mouse having a body weight of 20 g. In the following Examples, all the experiments performed using a mouse were based on n=3. PMO (the PMO single administration group) at 2.5 nmol or 2.5 nmol PMO with 250 μg of TGN-073 added thereto (the PMO/TGN-073 coadministration group) was administered in an amount of 10 μL to the left cerebral ventricle of a mouse.
At 1 week after the intraventricular administration, the mouse was dissected, and the hippocampus, striatum, and cortex (occipital lobe) were extirpated. Subsequently, mRNA was extracted from each tissue, using Isogen II. On the total RNA (900 ng) extracted, One-Step RT-PCR was performed using Qiagen One Step RT-PCR Kit (manufactured by Qiagen N.V.). A reaction solution was prepared in accordance with the protocol attached to the Kit. […]
A reaction product of the above-described RT-PCR, in an amount of 1 μL, was analyzed using Bioanalyzer 2100 (manufactured by Agilent Technologies, Inc.), and using an Agilent DNA1000 kit. The number “A” of moles of the nucleotide of the band skipped by exon 23 and the number “B” of moles of the nucleotide of the band not skipped by exon 23 were measured. On the basis of the measurement values of these “A” and “B”, the skipping efficiency was determined in accordance with the following formula: skipping efficiency (%)=A/(A+B)×100. […]

[5] = IgG antibody concentration in left hippocampus after intraventricular administration (Alexa 647 fluorescence); type: in vivo; settings: coadministered with IgG antibody (10 μg/mouse), TGN-073 250 μg/mouse, 3 hours
Procedure: In this Example, an Alexa 647 fluorescence-labeled IgG antibody (Goat anti-Rabbit IgG (H+L) Highly Cross-Adsorbed Secondary Antibody, Alexa Fluor (trademark)647, #A-21245, Invitrogen) alone or in combination with TGN-073 (250 μg/mouse) was administered at a dose of 10 μg/mouse to the left lateral ventricle of an 8-week-old ICR mouse (female). Hereinafter, the mice to which the IgG antibody alone was intraventricularly administered are referred to as the “IgG antibody single administration group”, and the mice to which the IgG antibody and TGN-073 were intraventricularly administered together are referred to as the “IgG/TGN-073 coadministration group”. Brain tissue samples of the left hippocampus were collected from the mice at 3 hours after the intraventricular administration. Using a fluorescence plate reader (M1000Pro, Tecan Group Ltd.), the Alexa 647 fluorescence intensity per brain weight was measured to thereby evaluate the concentration of the IgG antibody.

O=S(=O)(Nc1ncccc1OCc1ccccc1)c1ccccc1 [TGN-073, N-(3-benzyloxypyridin-2-yl)-benzene-sulfonamide]
Maximum moving speed in open-field test vs ASO single administration [1]: substantially the same maximum moving speed | Moving time in open-field test vs ASO single administration [1]: the same moving time | Target gene (Sod1) suppression effect in the brain (hippocampus) vs siRNA single administration [2]: marked augmentation | GFP expression amount vs AAV single administration [3]: increase in the expression amount | Range of GFP expression in the central nervous system vs AAV single administration [3]: significantly wide range | Exon 23 skipping efficiency vs Chol-HDO (PMO) single administration ([4]; coadministered with Chol-HDO (PMO) (2.5 nmol)): noticeable increase | Exon 23 skipping efficiency vs PMO single administration ([4]; coadministered with PMO (2.5 nmol)): noticeable increase | IgG antibody concentration in the central nervous system (left hippocampus) vs IgG antibody single administration [5]: dramatic increase
